Experimental data reported in patent publication US20250049885A1, “HYALURONIC ACID BINDING PEPTIDE AS A THERAPEUTIC TO CONTROL FIBROBLAST ACTIVATION AND FIBROTIC CAPSULE FORMATION” (SOUTH DAKOTA BOARD OF REGENTS, priority 2023, published 2025).
Ends that are not written are not given here.

What was measured:
[1] = tested on: normal human adult primary dermal fibroblasts; test: Live/Dead fluorescent staining of fibroblasts cultured on functionalized surfaces; type: cell-based
Method: (§1) FIGS. 2A-C depict assessment of the cytocompatibility of the peptide treated surfaces using Live/Dead and PrestoBlue assays. Presto Blue assay is a measure of cellular metabolic activity. FIG. 2A is a color image of a cell culture: Calcein-AM (green) and Propidium Iodide (red) were used to stain for live and dead cells respectively.
(§2) Surface functionalization was done with 2% APTMS and 1 mM HABP. 2% APTMS (in 2-propanol) was treated on the surface for 6 hours in a wet chamber at room temperature. Following the end of the culture period, three washes with DI H2O were used to remove the residual APTMS. A 1 mM HABP in DI H2O solution was added to the surface and left overnight at 4° C. in the wet chamber. After the peptide treatment is completed, the surfaces were rinsed 5 times with PBS for 5 minutes each. These functionalized surfaces were used for HA binding verification and cell seeding experiments. Two other experimental groups were established: one with only the APTMS treatment, and one with no surface treatment (Table 2).
(§3) Human primary dermal fibroblasts (HDFs) were cultured in a culture media consisting of DMEM, 10% fetal bovine serum (FBS), and 1% penicillin-streptomycin (10,000 IU/mL). The cells were rinsed with warm 1×PBS to remove any traces of FBS from the surface, and a 0.25% trypsin/EDTA treatment was used to detach the cells from the culture flask at 37° C. for 5 minutes. 4 mL of fresh media was added to the cells to inhibit the trypsin, and the suspended cells were withdrawn from the flask, counted using a hemocytometer, and added to a 15 ml centrifuge tube. The cells were centrifuged for 5 minutes at 1500 rpms, and the media was withdrawn and replaced with a calculated amount of fresh media in which the cells were resuspended. The cells were added to the functionalized MatTek surfaces, and after 6 hours, 2 mL of media containing 100 μg/mL ascorbic acid was added. The cells were cultured for 48-96 hours before further experimentation was conducted. […]

[2] = as above; type: cell-based, human; conditions: human; fibroblasts cultured on functionalized surface; read-out: Cell viability (Live/Dead)
Method: as §1, §2, §3

[3] = tested on: Col1 fibers deposited by dermal fibroblasts; test: Type I Collagen immunostaining and fiber analysis (CT-Fire); type: cell-based, human; conditions: p-value<0.01
Source text: FIGS. 5A-G show Type I Collagen immunostaining results. FIG. 5A is a color cell culture stain: Fluorescent images of Col1 at 20× magnification. The scale bar represents 100 μm. FIG. 5B is a color image showing CT-Fire overlays of Col1 fibers from the above images, where different fiber characteristics are shown via different coloration. FIG. 5C is a graphical representation of the distribution of the number of Col1 fibers in each treatment group. FIG. 5D is a graphical representation of the distribution of Col1 fiber lengths in each treatment group. There is a notable difference between the APTMS group and the Untreated and HABP groups. FIG. 5E is a graphical representation of the measurement of fiber straightness. […] The closer the value is to one, the straighter individual fibers within the treatment groups are. FIG. 5F is a graphical representation of the Col1 fiber width comparison between treatment groups. […]
Immunostaining was done using α-SMA (D4K9N, Cell Signal) and Type I collagen primary antibodies. […] After this point, all further staining was conducted in the dark to preserve fluorescence. […]
Immunostaining for Type I Collagen (Col1) was done to determine the impact of the HABP surface treatment on ECM formation. […] Col1 fibers were analyzed and the analysis found significant differences in fiber angle, straightness, and width.

[4] = tested on: primary dermal fibroblasts; test: Cell morphology and alignment on functionalized surfaces (brightfield); type: cell-based, human; conditions: vs cells on the other surface groups
Method: FIGS. 3A-B depicts primary dermal fibroblasts seeded at 50.000 cells/154 mm^2 and incubated for 10 days on HABP and Scrambled HABP functionalized surfaces. APTMS surfaces were treated with 2% APTMS only and Untreated surfaces had no treatment other than PBS rinse. […] Decellularization occurred on Day 11. (Representative of average and standard deviation; N=3; scale bar represents 100 μm). […] (Representative of average and standard deviation; N=6).
APTMS functionalized and untreated experimental groups were established.
Untreated and HABP functionalized surfaces did have some fibroblasts with higher levels of alignment, but the majority of fibroblast cells in those groups maintained a similar distribution of alignment to the APTMS cultures.

Molecule	Cell viability vs control groups (Live/Dead) ([1]; HABP vs APTMS treated and untreated surfaces)	Cell viability (Live/Dead) ([1]; fibroblasts cultured on functionalized surface) [%]	viability [2] [%]	Col1 fiber width narrower than untreated cultures [3] [%]	Cell morphology [4]
GAHWQFNALTVR [HABP, GAHWQFNALTVR]	no significant difference	98.9	98.9	–	–
CO[Si](CCCN)(OC)OC [APTMS, 3-aminopropyltrimethoxysilane]	–	–	–	5	slightly stressed morphology
